In patent US3989598A (priority 1962, dated 1976):
≈ marks a conversion by molar mass, not a printed value.

Experiments:
[1] = test system: Staphylococcus aureus actinomycin resistant strain; test: bacteriostatic activity, dilution method in nutritive broth; type: cell-based; conditions: read-out: Minimal bacteriostatic concentration
[2] = test system: Brucella bronchiseptica (CN 387 - Wellcome Institute); test: microbe, parasite or virus in culture; type: cell-based; conditions: Bordetella bronchiseptica, read-out: Minimal bacteriostatic concentration
[3] = test system: Mycobacterium para-smegmatis (A 75 - Lausanne); test: bacteriostatic activity, dilution method in nutritive broth; type: cell-based; conditions: read-out: Minimal bacteriostatic concentration
[4] = clinical dosage in acute leukaemias: maximum safe dose; conditions: human, in vivo, iv, overall dosage of initial treatment, calculated per kg weight
Description: Treatment of acute leukaemias must be intensive and of short duration; depending on the case, it comprises one or more courses. In the lymphoblstic forms of leukaemia, the actual trend is to administer a daily dose of 1 mg/kg body weight of two to eight consecutive days, and to cease injections when the leucopenia reaches 1,000 to 1,500 units per cc. It will be recalled that characteristic changes in the medullary cytology fcilitate the conducting of the treatment and help in its adaptation to each particular case. […] It is, moreover, at the end of the aplastic phase, when the number of leucocytes is rising again, that adjustement of the theraputic dose is difficult. When, the day after medication was stopped the leucopenia worsens and the medullary blasts change, it is required to wait for regeneration of the blood before proceeding with a bone marrow test. If the lqucopenia is not accentuated and the medullary cytology remains high with persistence of blastic cells, a second course is undertaken. […] The overall dosage corresponding to the group of courses making up the initial treatment, such as has just been defined, is far from being uniform; calculated per kg weight, it sometimes reaches 20 mg, a dose of around 25 mg being considered the maximum safe dose. […]

[5] = test system: Klebsiella pneumoniae - ATCC 10,031; test: bacteriostatic activity, dilution method in nutritive broth; type: cell-based; conditions: ATCC10, read-out: Minimal bacteriostatic concentration
[6] = test system: Streptococcus faecalis (Thiercelin's enterococcus Fac.Phie); test: as above; type: cell-based; conditions: read-out: Minimal bacteriostatic concentration
[7] = test system: Bacillus subtilis ATCC 6633; test: as above; type: cell-based; conditions: ATCC6633, read-out: Minimal bacteriostatic concentration
Proteus X 19 = test: as above; type: cell-based; conditions: read-out: Minimal bacteriostatic concentration
[8] = test system: Streptococcus viridans (Institut Pasteur); test: as above; type: cell-based; conditions: read-out: Minimal bacteriostatic concentration
[9] = test system: Shigella dysenteriae (Shiga L. - Institut Pasteur); test: microbe, parasite or virus in culture; type: cell-based; conditions: read-out: Minimal bacteriostatic concentration
[10] = test system: Diplococcus pneumoniae (strain Til. Institut Pasteur); test: bacteriostatic activity, dilution method in nutritive broth; type: cell-based; conditions: Streptococcus pneumoniae, read-out: Minimal bacteriostatic concentration
[11] = test system: Mycobacterium phlei (Bacteriological Institute of Lyon); test: as above; type: cell-based; conditions: Mycolicibacterium phlei, read-out: Minimal bacteriostatic concentration
[12] = test system: Staphylococcus aureus erythromycin resistant strain; test: as above; type: cell-based; conditions: read-out: Minimal bacteriostatic concentration
[13] = test system: Bacillus subtilis (strain 3 R 9575, Merck - ATCC 9524); test: as above; type: cell-based; conditions: ATCC9524, read-out: Minimal bacteriostatic concentration
[14] = test system: Bacillus brevis ATCC 8185; test: as above; type: cell-based; conditions: Brevibacillus brevis, ATCC8185, read-out: Minimal bacteriostatic concentration
[15] = test system: Bacillus megatherium (NRRL B 1125); test: as above; type: cell-based; conditions: read-out: Minimal bacteriostatic concentration
[16] = test system: Corynebacterium pseudodiphtericum (Fac.Phie); test: as above; type: cell-based; conditions: read-out: Minimal bacteriostatic concentration
[17] = test system: Staphylococcus aureus strain Launoy 1; test: as above; type: cell-based; conditions: LAUNOY1, strain Launoy 1 (tetracycline, streptomycin, chloramphenicol and penicillin resistant), read-out: Minimal bacteriostatic concentration
[18] = test system: Staphylococcus aureus carbomycin resistant strain; test: as above; type: cell-based; conditions: read-out: Minimal bacteriostatic concentration
[19] = test system: Staphylococcus aureus strain Launoy 2; test: as above; type: cell-based; conditions: LAUNOY2, strain Launoy 2 (tetracycline, streptomycin and penicillin resistant), read-out: Minimal bacteriostatic concentration
solubility = type: physicochemical
Klebsiella pneumoniae = test: turbidimetric estimation of activity by comparison with a 9865 RP sample of known activity; type: cell-based; conditions: unit = smallest quantity in 1 cc. of medium that inhibits growth of Klebsiella pneumoniae
Excerpt: The following non-limitative Examples illustrate the invention. […] This activity is expressed in units (u) per mg. for solid products and in units per cc. for solution. (The unit is defined as the smallest quantity of product which, dissolved in 1 cc. of an appropriate medium, inhibits the growth of Klebsiella pneumoniae under the conditions in question).

[20] = test system: Pasteurella multocida (A. 125 - Institut Pasteur); test: bacteriostatic activity, dilution method in nutritive broth; type: cell-based; conditions: read-out: Minimal bacteriostatic concentration
[21] = clinical safety of daunorubicin: heart; type: in vivo; conditions: human treatment
[22] = test system: acute lymphoblastic leukemia; test: utility in treating certain tumours; type: in vivo, human
[23] = test system: Bacillus lactis aerogenes (Fac. Phie); test: bacteriostatic activity, dilution method in nutritive broth; type: cell-based; conditions: read-out: Minimal bacteriostatic concentration
[24] = test system: Aerobacter aerogenes - ATCC 8308; test: as above; type: cell-based; conditions: Klebsiella aerogenes, ATCC8308, read-out: Minimal bacteriostatic concentration
[25] = test system: Gaffkya tetragena (Fac.Phie); test: as above; type: cell-based; conditions: read-out: Minimal bacteriostatic concentration
[26] = test system: Staphylococcus aureus streptogramin resistant strain; test: as above; type: cell-based; conditions: read-out: Minimal bacteriostatic concentration

COc1cccc2c1C(=O)c1c(O)c3c(c(O)c1C2=O)C[C@@](O)(C(C)=O)C[C@@H]3O[C@H]1C[C@H](N)[C@H](O)[C@H](C)O1 [13057 RP daunorubicin, daunorubicin]
MIC [1]: 5.8 µg/mL (≈ 11 µM)
MIC [2]: 62 µg/mL (≈ 118 µM)
MIC [3]: 2.2 µg/mL (≈ 4.17 µM)
MTD [4]: ~25 mg/kg
MIC [5]: 8.9 µg/mL (≈ 16.9 µM)
MIC [6]: 19 µg/mL (≈ 36 µM)
MIC [7]: 1.2 µg/mL (≈ 2.27 µM)
MIC (Proteus X 19): 62 µg/mL (≈ 118 µM)
MIC [8]: 43 µg/mL (≈ 81.5 µM)
MIC [9]: 2000 µg/mL (≈ 3790 µM)
MIC [10]: 0.89 µg/mL (≈ 1.69 µM)
MIC [11]: 5 µg/mL (≈ 9.48 µM)
MIC [12]: 3.8 µg/mL (≈ 7.2 µM)
MIC [13]: 1.8 µg/mL (≈ 3.41 µM)
MIC [14]: 1.4 µg/mL (≈ 2.65 µM)
MIC [15]: 1.3 µg/mL (≈ 2.46 µM)
MIC [16]: 1.7 µg/mL (≈ 3.22 µM)
MIC [17]: 7.1 µg/mL (≈ 13.5 µM)
MIC [18]: 5.3 µg/mL (≈ 10 µM)
MIC [19]: 4.8 µg/mL (≈ 9.1 µM)
solubility in alcohols (solubility; alcohols): soluble
solubility in benzene (solubility; benzene): practically insoluble
solubility in chloroform (solubility; chloroform): soluble
solubility in diethyl ether (solubility; diethyl ether): practically insoluble
solubility in ketones (solubility; ketones): very slighly soluble
solubility in water (solubility; water): very slighly soluble
activity (Klebsiella pneumoniae): 160 μ/mg.
MIC [20]: 1.8 µg/mL (≈ 3.41 µM)
cardiac complications [21]: sometimes accompanied by cardiac complications
utility in treating tumours [22]: proved to be of utility
MIC [23]: 120 µg/mL (≈ 227 µM)
MIC [24]: 1000 µg/mL (≈ 1900 µM)
MIC [25]: 6.7 µg/mL (≈ 12.7 µM)
MIC [26]: 1.9 µg/mL (≈ 3.6 µM)
